From patent US20090105277A1, “AGENT FOR PREVENTING AND/OR TREATING MOVEMENT DISORDER” (KYOWA HAKKO KOGYO CO., LTD., priority 2005, published 2009) come the findings set out here.

Values joined by “and” are separate entries in the source; they are usually repeats but may differ in a detail not shown here. Equal entries are not always repeated.

The subject of assay [1] is involuntary movement (e.g., dyskinesia) model rats. Description: Abnormal involuntary movements (AIMs) in involuntary movement (dyskinesia) model rats given repeated L-DOPA. The conditions noted are these: for AIMs score axial, limb, orolingual, day 1-3 / AIMs score locomotive, day 1-3 / AIMs score axial, limb, orolingual, day 8-10 / AIMs score locomotive, day 8-10: oral, multiple doses; for AIMs score axial, limb, orolingual, post value / AIMs score locomotive, post value: after 3-day drug withdrawal, L-DOPA (20 mg/kg) administered; for onset of dyskinesia: combined administration with L-DOPA 10 mg/kg, compared to single administration of L-DOPA 20 mg/kg. The class given is in vivo, rat. The source says:
It is known that abnormal involuntary movements (AIMS) are developed by repeated administration of L-DOPA to the Parkinson's disease model rat prepared by the method described in Test Example 1, and the treated rat is used as a model of an involuntary movement such as dyskinesia, or the like. AIMs are classified into 4 kinds: (1) axial AIMs: deflection or torsion of head, neck, and trunk towards the contralateral side of lesioned side of the brain, (2) limb AIMs: movements of mainly forelimb on the contralateral side of the lesioned side of the brain (bending or extension in the perpendicular direction or movements in the horizontal•back and forth directions, opening and closure of the digits etc.); (3) orolingual AIMs: jaw movements, facial distortion, tongue protrusion (accompanying behavior of biting hair, skin of forelimb on the contralateral side of the lesioned side); and (4) locomotive AIMs: contralateral rotational behavior. Of these, locomotive AIMs are induced by dopamine agonists such as bromocriptine causing less dyskinesia, and are not suppressed by a drug having an […] activity such as amantadine. From these, locomotive AIMs have been reported to reflect normal movements improved by an antiparkinsonian effect (Neurobiology of Disease, 2002, vol. 10, p. 165-86; European Journal of Neuroscience, 2002, vol. 15, p. 120-132). […] The frequency of the above-mentioned four kinds of AIMs were scored in 0 to 4 points (0 point: no symptom, 1 point: appearance in less than 50% of observation time, 2 points: appearance in 50% or more of observation time, 3 points: symptom is maintained but prevented by strong sensory stimuli, 4 points: symptom is maintained and is not prevented by strong sensory stimuli). As for axial AIMs and limb AIMs, the amplitude thereof was scored in 1 to 4 points (axial AIMs; 1 point: deflection of head and neck is less than 30 degrees, 2 points: deflection of head and neck is not less than 30 degrees and less than 60 degrees, 3 points: deflection and torsion of head, neck and upper trunk is not less than 60 degrees and less than 90 degrees, 4 points: deflection and torsion of head, neck and trunk is 90 degrees or more and balance is lost, limb AIMs; 1 point: tiny oscillatory movements of limb and distal forelimb, 2 points: low amplitude but visible translocation of both distal and proximal limbs, 3 points: translocation of the whole limb with visible contraction of shoulder muscles, 4 points: strong movements of limb and shoulder at maximul amplitude). SD male rats (6-week-old, CHARLES RIVER LABORATORIES JAPAN, INC.) were used for the test. Parkinson's disease model rats were prepared according to the method described in Test Example 1. After a postoperative period of 6 days or longer, L-DOPA (20 mg/kg/day) was repetitively and orally administered once or twice per day to give a model rat of involuntary movement such as dyskinesia, or the like. […] The rats almost free of AIMs after the lapse of 1 week or longer from repetitive administration of L-DOPA were removed. As the group constitution, an L-DOPA 20 mg/kg and 0.5% MC solution administration group (single administration group) and an L-DOPA 10 mg/kg and test compound administration group (combined administration group) were used. The test compound was used in the same dose as in Test Example 1, whereby the conditions under which both the single administration group and the combined administration group show the same level of antiparkinsonian activity were set. After grouping, multiple doses of L-DOPA 20 mg/kg and 0.5% MC solution, and L-DOPA 10 mg/kg and test compound were orally administered, respectively. […] After the completion of administration, a 3-day drug withdrawal period was taken, and then L-DOPA (20 mg/kg) was administered. The AIMs score at this time was taken as the post value. The AIMs score of each group was expressed as mean±standard deviation of total AIMs score observed in individual rats for one day. […]

For assay [2], the system named is 6-OHDA treated rats (Parkinson's disease model rat). Description: L-DOPA induced contralateral rotational behavior (antiparkinsonian effect) in the Parkinson's disease model rats. It counts as in vivo. The conditions noted are these: for number of rotations: oral, total count in 3 hr; for antiparkinsonian activity compared with single administration of L-DOPA 20 mg/kg: L-DOPA 10 mg/kg and test compound combined; for effect on L-DOPA induced rotational behavior, namely antiparkinsonian activity: combined with L-DOPA 10 mg/kg, vs L-DOPA 10 mg/kg + 0.5% MC solution.

[3] abbreviates: L-DOPA (20 mg/kg) + 0.5% MC solution (single administration).
Where [4] appears, read: group L-DOPA (20 mg/kg) + 0.5% MC solution.
Where [5] appears, read: L-DOPA (10 mg/kg) + compound 1 (30 mg/kg).
Setting [6] is: group L-DOPA (10 mg/kg) + compound 1 (30 mg/kg).
Setting [7] is: L-DOPA (10 mg/kg) + compound 2 (1 mg/kg).
Where [8] appears, read: group L-DOPA (10 mg/kg) + compound 2 (1 mg/kg).

`N[C@@H](Cc1ccc(O)c(O)c1)C(=O)O` [L-DOPA, reference compound]: in assay [1] (setting [3]), the “AIMs score axial, limb, orolingual, day 1-3” value (“AIMs score axial … day 1-3” for short) is 272.9 ± 25.9 and 271.9 ± 12.6; the “AIMs score locomotive, day 1-3” value is 16.0 ± 2.1 and 12.4 ± 2.6; the “AIMs score axial, limb, orolingual, day 8-10” value (“AIMs score axial … day 8-10” for short) was 291.7 ± 16.7 and 232.4 ± 26.2; the “AIMs score locomotive, day 8-10” value was 16.1 ± 2.1 and 13.6 ± 1.7. Also, in assay [1] (setting [4]), the “AIMs score axial, limb, orolingual, post value” (from here on “AIMs score axial … post value”) is 129.3 ± 14.3 and 139.1 ± 12.6; the “AIMs score locomotive, post value” was 16.3 ± 2.8 and 15.0 ± 1.4. The number of rotations in assay [2] (L-DOPA (10 mg/kg) + 0.5% MC solution (single administration)) was 534.3 ± 123.4 and 367.3 ± 140.6.

On to `CC(C)(O)CCN1CCN(c2cc3nc(-c4ccco4)nn3c(N)n2)CC1` [compound 1], for which, in assay [1] (setting [5]), the “AIMs score axial … day 1-3” value was determined as 78.3 ± 17.2; the “AIMs score locomotive, day 1-3” value is 16.3 ± 3.5; the “AIMs score axial … day 8-10” value is 105.0 ± 24.1; the “AIMs score locomotive, day 8-10” value stood at 16.4 ± 3.9. For the same compound, in assay [1], the onset of dyskinesia result is given as “significant suppression”. For the same compound, in assay [1] (setting [6]), the “AIMs score axial … post value” came out at 106.9 ± 14.0 and the “AIMs score locomotive, post value” is reported as 17.1 ± 3.1. In assay [2], the “antiparkinsonian activity compared with single administration of L-DOPA 20 mg/kg” value is on record as “same level” and the “effect on L-DOPA induced rotational behavior, namely antiparkinsonian activity” value is listed as “significantly enhanced”. The number of rotations in assay [2] (L-DOPA (10 mg/kg) + compound 1 (30 mg/kg), mean±standard deviation) stood at 1732.2 ± 305.2.

Turning to `COCCOc1ccc(N2CCN(CCn3ncc4c3nc(N)n3nc(-c5ccco5)nc43)CC2)cc1` [compound 2], in assay [1] (setting [7]), the “AIMs score axial … day 1-3” value is listed as 146.4 ± 13.3; the “AIMs score locomotive, day 1-3” value stood at 14.8 ± 1.7; the “AIMs score axial … day 8-10” value is 117.5 ± 15.5; the “AIMs score locomotive, day 8-10” value is given as 14.4 ± 1.7. Also, the onset of dyskinesia result in assay [1] is reported as “significant suppression”. In assay [1] (setting [8]), the “AIMs score axial … post value” was 159.8 ± 24.7 and the “AIMs score locomotive, post value” amounted to 13.1 ± 1.7. In addition, in assay [2], the “antiparkinsonian activity compared with single administration of L-DOPA 20 mg/kg” value was “same level” and the “effect on L-DOPA induced rotational behavior, namely antiparkinsonian activity” value is “significantly enhanced”. The number of rotations in assay [2] (L-DOPA (10 mg/kg) + compound 2 (1 mg/kg), mean±standard deviation) stood at 1543.5 ± 263.2.
